# ChEMBL document CHEMBL1201862, “PubChem BioAssay data set” (2004)
#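 Test compounds were applied to cells in 96-well plates for 48 hours at 5 doses. GI50 = concentration required for 50% inhibition of growth.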 Activity calls are given as the source filed them. Cut-off read from the data, not from the text of the source: active = GI50 up to about 1.1 µM and inactive = higher.
# Legend:
# Experiment in all cases: NCI-60 cell line screen, 48 h
# BT-549 = test system: BT-549
# SR = test system: SR
# A549 = test system: A549
# CAKI-1 = test system: CAKI-1
# KM12 = test system: KM12
# SNB-75 = test system: SNB-75
# M14 = test system: M14
# HCC 2998 = test system: HCC 2998
# CCRF-CEM = test system: CCRF-CEM
# LOX IMVI = test system: LOX IMVI
# ACHN = test system: ACHN
# K562 = test system: K562
# IGROV-1 = test system: IGROV-1
# TK-10 = test system: TK-10
# EKVX = test system: EKVX
# SK-OV-3 = test system: SK-OV-3
# RPMI-8226 = test system: RPMI-8226
# HL-60 = test system: HL-60
# HOP-62 = test system: HOP-62
# HCT-116 = test system: HCT-116
SMILES,GI50 (BT-549),GI50 (SR),GI50 (A549),GI50 (CAKI-1),GI50 (KM12),GI50 (SNB-75),GI50 (M14),GI50 (HCC 2998),GI50 (CCRF-CEM),GI50 (LOX IMVI),GI50 (ACHN),GI50 (K562),GI50 (IGROV-1),GI50 (TK-10),GI50 (EKVX),GI50 (SK-OV-3),GI50 (RPMI-8226),GI50 (HL-60),GI50 (HOP-62),GI50 (HCT-116)
Oc1c(Br)c(-c2ccccc2)nc2ccccc12,58.1 µM (inactive),29.8 µM (inactive),1.98 µM (inactive),6.32 µM (inactive),1.18 µM (inactive),8.15 µM (inactive),47 µM (inactive),> 10 µM (inactive),44 µM (inactive),64 µM (inactive),35.8 µM (inactive),1.9 µM (inactive),9.55 µM (inactive),57.8 µM (inactive),7.85 µM (inactive),> 100 µM (inactive),20.7 µM (inactive),12.2 µM (inactive),> 62.1 µM (inactive),53.3 µM (inactive)
O=C1/C(=C\c2cccc(Oc3ccccc3)c2)S(=O)(=O)C(c2ccccc2)N1c1ccc(Cl)cc1 (stereo not given),22.6 µM (inactive),8.2 µM (inactive),42.9 µM (inactive),13.2 µM (inactive),24 µM (inactive),30.4 µM (inactive),14 µM (inactive),56.1 µM (inactive),12.3 µM (inactive),10.4 µM (inactive),12.9 µM (inactive),10.6 µM (inactive),14.7 µM (inactive),92.3 µM (inactive),23 µM (inactive),32.2 µM (inactive),12.3 µM (inactive),13.2 µM (inactive),27.8 µM (inactive),13.9 µM (inactive)
CC(=O)Nc1c2sscc-2n(C)c1=O [THIOLUTIN],1.43 µM (inactive),0.235 µM (active),1.55 µM (inactive),1.89 µM (inactive),1.32 µM (inactive),1.67 µM (inactive),0.314 µM (active),0.587 µM (active),0.282 µM (active),1.86 µM (inactive),0.984 µM (active),1.52 µM (inactive),1.86 µM (inactive),2.15 µM (inactive),1.87 µM (inactive),1.2 µM (inactive),0.575 µM (active),0.512 µM (active),1.67 µM (inactive),0.695 µM (active)
